Where two headings read alike, the source gives them in different places.
Columns and labels:
[1] = test system: peach aphids (Myzus persicae); experiment: Myzus Test/Cabbage; assay type: in vivo; settings: 144 h, read-out: Kill rate in % after 6d
Method: To produce a suitable preparation of active compound, 1 part by weight of active compound is mixed with the stated amounts of solvent and emulsifier, and the concentrate is diluted with emulsifier-containing water to the desired concentration.
Cabbage leaves (Brassica oleracea) which are heavily infested by peach aphids (Myzus persicae) are treated by being dipped into the preparation of active compound of the desired concentration.
After the desired period of time, the kill in % is determined. 100% means that all aphids have been killed; 0% means that none of the aphids have been killed.
Amounts of solvent, amounts of emulsifier, active compounds, active compound concentrations and test results are shown in the Tables below.

[2] = logP determination by HPLC (EEC Directive 79/831 Annex V.A8); assay type: physicochemical; settings: pH 2.3, HPLC reversed-phase column (C 18), 43° C.
Method: The stated logp values were determined in accordance with EEC Directive 79/831 Annex V.A8 by HPLC (High Performance Liquid Chromatography) using a reversed-phase column (C 18). Temperature: 43° C.
Mobile phases for the determination in the acidic range: 0.1% aqueous phosphoric acid, acetonitrile; linear gradient from 10% acetonitrile to 90% acetonitrile.
Calibration was carried out using unbranched alkane-2-ones (having 3 to 16 carbon atoms) with known logp values (determination of the logp values by the retention times using linear interpolation between two successive alkanones).

[3] = 500 ppm, Table B 1, cabbage leaves dipped
[4] = 500 ppm, Table B 2, cabbage leaves dipped
[5] = reversed-phase HPLC column (C 18)
[6] = reversed-phase HPLC column (C 18), read-out: log P(pH 2.3)

SMILES	chromatographic logP [2, 6]	also measured
CCOC(=O)CSc1nccc(-n2cc(Br)cn2)n1	–	pest or weed control at 500 ppm [1, 3]: 100%
CCOC(=O)CSc1nccc(-n2cc(-c3ccc(Cl)cc3)cn2)n1	–	pest or weed control at 500 ppm [1, 4]: 100%
O=C(CSc1nccc(-n2cccn2)n1)OCC(F)(F)F	–	pest or weed control at 500 ppm [1, 4]: 100%
O=C(CSc1nccc(-n2cccn2)n1)OCC(F)(F)C(F)F	–	pest or weed control at 500 ppm [1, 4]: 100%
O=C(CSc1nccc(-n2cccn2)n1)OCC(F)(F)C(F)(F)C(F)(F)F	–	pest or weed control at 500 ppm [1]: 100%
O=C(CSc1nccc(-n2cccn2)n1)OC(C(F)(F)F)C(F)(F)F	–	pest or weed control at 500 ppm [1, 4]: 100%
O=C(CSc1nccc(-n2cccn2)n1)OCC(Cl)Cl	–	pest or weed control at 500 ppm [1, 4]: 100%
O=C(CSc1nccc(-n2cccn2)n1)OCC(F)(F)C(F)(F)F	–	pest or weed control at 500 ppm [1, 4]: 100%
CN(CC(=O)OCC(F)(F)C(F)(F)C(F)(F)F)c1nccc(-n2cccn2)n1	–	pest or weed control at 500 ppm [1]: 100%
COc1cnn(-c2ccnc(N(C)CC(=O)OCC(F)(F)C(F)(F)C(F)(F)F)n2)c1	–	pest or weed control at 500 ppm [1]: 100%
COc1cnn(-c2ccnc(N(C)CC(=O)OCC(F)(F)F)n2)c1	–	pest or weed control at 500 ppm [1, 4]: 100%
CCOC(=O)CSc1nccc(Br)n1 [Ethyl [(4-bromo-2-pyrimidinyl)thio]acetate]	–	chromatographic logP [2, 5]: 2.27
CCOC(=O)CSc1nccc(-n2cc(C)cn2)n1 [Example 1, ethyl {[4-(4-methyl-1H-pyrazol-1-yl)-2-pyrimidinyl]thio}acetate]	–	chromatographic logP [2, 5]: 2.28
CCOC(=O)CSc1nccc(-n2nccc2[N+](=O)[O-])n1 [Example 2, ethyl {[4-(5-nitro-1H-pyrazol-1-yl)-2-pyrimidinyl]thio}acetate]	–	chromatographic logP [2, 5]: 2.55
CCOC(=O)CN(C)c1nccc(-n2cccn2)n1 [Example 3, ethyl N-methyl-N-[4-(1H-pyrazol-1-yl)-2-pyrimidinyl]glycinate]	–	chromatographic logP [2, 5]: 2.1
CCOC(=O)CSc1nccc(-n2cccn2)n1 [Example 5]	2.19	–
COC(=O)CSc1nccc(-n2cc(Br)cn2)n1 [Example 7]	2.69	–
CCOC(=O)CSc1nccc(-n2ccc(-c3ccc(Cl)cc3)n2)n1 [Example 8]	4.5	–
CCOC(=O)CSc1nccc(-n2ncc(SC(F)(F)F)c2C)n1 [Example 9]	4.08	–
CCOC(=O)CSc1nccc(-n2cc([N+](=O)[O-])cn2)n1 [Example 12]	2.56	–
CCOC(=O)CSc1nccc(-n2cc(C#N)cn2)n1 [Example 13]	2.32	–
CCOC(=O)CSc1nccc(-n2ccc(C)n2)n1 [Example 14]	2.51	–

SMILES	chromatographic logP [2, 6]	also measured
CCOC(=O)CSc1nccc(-n2nc(C(F)(F)F)cc2C(F)(F)F)n1 [Example 15]	4.03	–
CCOC(=O)CSc1nccc(-n2nc(C)c(Cl)c2C)n1 [Example 16]	3.83	–
CCOC(=O)CSc1nccc(-n2nc(C#N)c3ccccc32)n1 [Example 17]	3.64	–
CCOC(=O)CSc1nccc(-n2ncc3c2CCCC3)n1 [Example 18]	3.34	–
CCOC(=O)CSc1nccc(-n2cc(Cl)cn2)n1 [Example 19]	3.01	–
CCOC(=O)CSc1nccc(-n2cc(OC(C)C)cn2)n1 [Example 20]	3.15	–
CCOC(=O)CSc1nccc(-n2ncc3ccccc32)n1 [Example 22]	3.34	–
CCOC(=O)CSc1nccc(-n2cc3ccccc3n2)n1 [Example 23]	3.11	–
O=C(CSc1nccc(-n2cccn2)n1)OCCCl [Example 33]	2.3	–
CCOC(=O)CSc1nccc(-n2cc(Br)c(N)n2)n1 [Example 41]	2.18	–
CCOC(=O)CN(CC)c1nccc(-n2cccn2)n1 [Example 46]	2.53	–
CCOC(=O)CSc1nccc(-n2cc(C(=O)OCC)cn2)n1 [Example 47]	2.79	–
CCOC(=O)CN(C)c1nccc(-n2cc(OC(C)C)cn2)n1 [Example 51]	2.89	–
CCOC(=O)CSc1nccc(-n2cc(CC)cn2)n1 [Example 55]	2.99	–
O=C(CSc1nccc(-n2cccn2)n1)OCC(F)(F)C(F)(F)C(F)(F)C(F)F [Example 58]	–	chromatographic logP ([2]; read-out: log P(pH 2.3)): 3.42
CN(CC(=O)OCC(F)(F)C(F)(F)F)c1nccc(-n2cccn2)n1 [Example 60]	–	chromatographic logP ([2]; read-out: log P(pH 2.3)): 3.2
COc1cnn(-c2ccnc(N(C)CC(=O)O)n2)c1 [Example 61]	1.14	–
CN(CC(=O)O)c1nccc(-n2cc(Br)cn2)n1 [Example 62]	1.91	–
CN(CC(=O)O)c1nccc(-n2cc(Cl)cn2)n1 [Example 63]	1.82	–
CCOC(=O)CSc1nccc(-n2cc(C(F)(F)F)cn2)n1 [Example 64]	3.27	–
CCOC(=O)CN(CC(C)C)c1nccc(-n2cccn2)n1 [Example 69]	3.57	–
CN(CC(=O)OCC(F)(F)C(F)(F)C(F)(F)C(F)F)c1nccc(-n2cccn2)n1 [Example 73]	–	chromatographic logP ([2]; read-out: log P(pH 2.3)): 3.46

SMILES	chromatographic logP [2, 6]	also measured
C#Cc1cnn(-c2ccnc(SCC(=O)OCC)n2)c1 [Example 74]	2.71	–
O=C(O)CSc1nccc(-n2cc(Br)cn2)n1 [Example 76]	1.91	–
O=C(O)CSc1nccc(-n2cc(Cl)cn2)n1 [Example 82]	1.81	–
CN(CC(=O)OCC(F)(F)C(F)(F)C(F)(F)F)c1nccc(-n2cc(Cl)cn2)n1 [Example 83]	–	chromatographic logP ([2]; read-out: log P(pH 2.3)): 4.46
COc1cnn(-c2ccnc(SCC(=O)O)n2)c1 [Example 84]	1.45	–
O=C(CSc1nccc(-n2cc(Br)cn2)n1)OCC(F)(F)C(F)(F)C(F)(F)F [Example 90]	–	chromatographic logP ([2]; read-out: log P(pH 2.3)): 4.34
COc1cnn(-c2ccnc(SCC(=O)OCC(F)(F)C(F)(F)C(F)(F)F)n2)c1 [Example 91]	–	chromatographic logP ([2]; read-out: log P(pH 2.3)): 3.78
CC(OC(=O)CSc1nccc(-n2cc(Br)cn2)n1)C(F)(F)C(F)(F)F (stereo not drawn) [Example 92]	4.3	–
COc1cnn(-c2ccnc(SCC(=O)OC(C)C(F)(F)C(F)(F)C(F)(F)F)n2)c1 (stereo not drawn) [Example 93]	–	chromatographic logP ([2]; read-out: log P(pH 2.3)): 4.14
CC(OC(=O)CSc1nccc(-n2cc(Br)cn2)n1)C(F)(F)C(F)(F)C(F)(F)F (stereo not drawn) [Example 94]	–	chromatographic logP ([2]; read-out: log P(pH 2.3)): 4.73
CCOC(=O)CSc1nccc(-n2cc(C(C)=O)cn2)n1 [Example 95]	2.07	–
C=Cc1cnn(-c2ccnc(SCC(=O)OCC)n2)c1 [Example 96]	2.87	–
CCOC(=O)CSc1nccc(-n2cc(N)cn2)n1 [Example 99]	0.94	–
COc1cnn(-c2ccnc(SCC(=O)OCC(F)(F)F)n2)c1 [Example 101]	2.87	–
CCOC(=O)CSc1nccc(-n2cc(SC(F)(F)C(F)F)cn2)n1 [Example 102]	3.45	–
CCOC(=O)CSc1nccc(-n2cccn2)n1 [drawing 174]	–	pest or weed control at 500 ppm [1, 3]: 95%
CCOC(=O)CSc1nccc(-n2cc(-c3ccccc3)cn2)n1 [drawing 177]	–	pest or weed control at 500 ppm [1, 4]: 100%
O=C(O)CSc1nccc(-n2cc(Br)cn2)n1 [drawing 186]	–	pest or weed control at 500 ppm [1, 4]: 100%
CCOC(=O)CSc1nccc(-n2cc(C(F)(F)F)cn2)n1 [drawing 188]	–	pest or weed control at 500 ppm [1, 4]: 100%
CN(CC(=O)OCC(F)(F)C(F)(F)C(F)(F)F)c1nccc(-n2cc(Cl)cn2)n1 [drawing 189]	–	pest or weed control at 500 ppm [1]: 100%
COc1cnn(-c2ccnc(SCC(=O)O)n2)c1 [drawing 190]	–	pest or weed control at 500 ppm [1, 4]: 100%
CC(OC(=O)CSc1nccc(-n2cc(Cl)cn2)n1)C(F)(F)C(F)(F)C(F)(F)F (stereo not drawn) [drawing 191]	–	pest or weed control at 500 ppm [1]: 100%

From patent US7087616B2, “Pyrazolyl pyrimidines” (Bayer CropScience AG, priority 2001, dated 2006)
